Test systems include A498; HCT-116; ACHN; CAKI-1; UACC-257; MCF7; COLO 205; KM12; NCI-H460; NCI-H23; HCT-15; SF-268; Hs-578T; RPMI-8226; MDA-N; PC-3; HOP-92; SK-MEL-5; UO-31; NCI-H226.
Assay in all cases: NCI anticancer screen, dose series, 48 h

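Values below derive from 48-hour exposures of cells grown in 96-well plates, with endpoints linearly interpolated between the two concentrations bracketing the appropriate inhibition level. The concentration for 50% growth inhibition is given as GI50.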 Active and inactive are the calls of the source. Rule as the data show it: active = GI50 up to about 1.1 µM and inactive = higher.

With `COc1ccc(/C=C2\CCCC(CN(C)C)C2=O)cc1` (configuration not stated), the GI50 in the experiment on A498 is 16.8 µM (inactive); with HCT-116, 1.63 µM (inactive); in the experiment with ACHN, 2.29 µM (inactive); with CAKI-1, 1.69 µM (inactive); with UACC-257, 3.26 µM (inactive); in the experiment with MCF7, 0.638 µM (active). Further, the GI50 in the experiment on COLO 205 is 2.1 µM (inactive); in the experiment on KM12, 1.3 µM (inactive); in the experiment on NCI-H460, 21.1 µM (inactive); in the experiment with NCI-H23 it was 7.71 µM (inactive); in the experiment on HCT-15, 1240 nM; in the experiment with SF-268, 3.03 µM (inactive). For the same compound, the GI50 is 3.02 µM (inactive) in the experiment on Hs-578T; 223 nM (active) in the experiment on RPMI-8226; 2.96 µM (inactive) with MDA-N; 5.74 µM (inactive) in the experiment on PC-3; 4.35 µM (inactive) in the experiment with HOP-92; 15.3 µM (inactive) in the experiment on SK-MEL-5. The figures for the GI50 with UO-31 and in the experiment with NCI-H226 were 3.63 µM (inactive) and 18.1 µM (inactive), respectively.
In the case of `CC1CC(C)[C@H](O)C([C@H](O)CC2CC(=O)N(C)C(=O)C2)C1` (some centres not stated), the GI50 in the experiment with A498, with HCT-116, in the experiment with ACHN, with CAKI-1, in the experiment with UACC-257 and with MCF7 was > 100 µM (inactive) each time. Further, the GI50 in the experiment on COLO 205 is > 100 µM (inactive); in the experiment with KM12, > 100 µM (inactive); in the experiment with NCI-H460, > 100 µM (inactive); with NCI-H23 it was > 100 µM (inactive); with HCT-15 it was more than 100000 nM; in the experiment on SF-268, > 100 µM (inactive). Further, the GI50 with Hs-578T is > 100 µM (inactive); in the experiment on RPMI-8226, > 100000 nM (inactive); in the experiment with MDA-N, > 100 µM (inactive); in the experiment on PC-3 it was > 100 µM (inactive); in the experiment on HOP-92, 32.3 µM (inactive); in the experiment with SK-MEL-5, > 100 µM (inactive). For the same compound, the GI50 in the experiment on UO-31 and in the experiment with NCI-H226 was > 100 µM (inactive) throughout.
For `CN(C)CCNc1ccc2c(=O)n(CCN(C)C)c(=O)n3c4ccccc4c(=O)c1c23`, the GI50 is 0.157 µM (active) in the experiment with A498; 0.0269 µM (active) with HCT-116; 0.0161 µM (active) with ACHN; 0.0133 µM (active) in the experiment on CAKI-1; 0.34 µM (active) in the experiment on UACC-257; < 0.0174 µM (active) in the experiment on MCF7. For the same compound, the GI50 is 0.17 µM (active) in the experiment with COLO 205; 0.116 µM (active) in the experiment with KM12; < 0.0113 µM (active) with NCI-H460; 0.0505 µM (active) with NCI-H23; 81.5 nM with HCT-15; 0.0512 µM (active) with SF-268. Besides, the GI50 was 0.305 µM (active) with Hs-578T; 18.2 nM (active) in the experiment on RPMI-8226; 0.133 µM (active) with MDA-N; 0.114 µM (active) in the experiment on PC-3; 0.0516 µM (active) with HOP-92; 0.0427 µM (active) in the experiment on SK-MEL-5. The GI50 with UO-31 is 0.166 µM (active); with NCI-H226 it was 0.0603 µM (active).
With `OCCNCNc1nc(NCNCCO)nc(N(CNCCO)CNCCO)n1`, the GI50 in the experiment on A498 was 28.1 µM (inactive); with HCT-116, 18.7 µM (inactive); in the experiment on ACHN, 27 µM (inactive); in the experiment with CAKI-1, 22.4 µM (inactive); with UACC-257, 18.2 µM (inactive); in the experiment on MCF7, 28.1 µM (inactive). Further, the GI50 in the experiment on COLO 205 is 15.7 µM (inactive); in the experiment with KM12 it was 39.4 µM (inactive); in the experiment with NCI-H460 it was 21.9 µM (inactive); in the experiment with NCI-H23, 21.2 µM (inactive); with HCT-15, 25200 nM; with SF-268 it was 23.7 µM (inactive). The GI50 was 32 µM (inactive) with Hs-578T; > 43800 nM (inactive) in the experiment on RPMI-8226; 19.2 µM (inactive) in the experiment with MDA-N; 22.3 µM (inactive) in the experiment on PC-3; 21.9 µM (inactive) in the experiment with HOP-92; 15.1 µM (inactive) in the experiment on SK-MEL-5. Moreover, the GI50 in the experiment on UO-31 was 33.2 µM (inactive); in the experiment with NCI-H226, 22.6 µM (inactive).
As to `CC[C@@H](C)[C@H]([C@H](CC(=O)N1CCC[C@@H]1[C@@H](OC)[C@H](C)C(=O)N[C@H](Cc1ccccc1)c1nccs1)OC)N(C)C(=O)[C@H](NC(=O)[C@@H](C(C)C)N(C)C)C(C)C`, the GI50 with A498 is 0.000228 µM (active); in the experiment on HCT-116 it was 0.000125 µM (active); in the experiment on ACHN it was 0.000439 µM (active); in the experiment with UACC-257, 0.000262 µM (active); in the experiment on MCF7 it was < 0.01 µM (active); with COLO 205, 7.13e-05 µM (active). Also, the GI50 in the experiment on KM12 was 1.67e-05 µM (active); in the experiment with NCI-H460, 5.9e-05 µM (active); in the experiment with NCI-H23, 0.000224 µM (active); in the experiment with HCT-15, 0.366 nM; with SF-268, 0.00039 µM (active); in the experiment with Hs-578T, < 0.01 µM (active). Moreover, the GI50 was 0.143 nM (active) with RPMI-8226; < 0.01 µM (active) in the experiment with MDA-N; < 0.01 µM (active) with PC-3; 0.00104 µM (active) with HOP-92; 2.51e-05 µM (active) in the experiment with SK-MEL-5; 0.00206 µM (active) in the experiment on UO-31. Moreover, the GI50 in the experiment on NCI-H226 was 0.000153 µM (active).
Take `CC(C)(C)c1cc(CC2C(=O)c3ccccc3C2=O)cc(C(C)(C)C)c1O`: the GI50 was 13.3 µM (inactive) in the experiment on A498; 2.24 µM (inactive) in the experiment with HCT-116; 9.51 µM (inactive) in the experiment with ACHN; 3.22 µM (inactive) in the experiment on CAKI-1; 3.21 µM (inactive) in the experiment on UACC-257; 3.66 µM (inactive) in the experiment on MCF7. Further, the GI50 was 3.6 µM (inactive) in the experiment on COLO 205; 3.51 µM (inactive) in the experiment on KM12; 4.48 µM (inactive) in the experiment with NCI-H460; 4.22 µM (inactive) with NCI-H23; 2900 nM with HCT-15; 3.44 µM (inactive) in the experiment with SF-268. Also, the GI50 was 3.94 µM (inactive) with Hs-578T; 764 nM (active) in the experiment with RPMI-8226; 7.5 µM (inactive) in the experiment with MDA-N; 2.7 µM (inactive) with PC-3; 0.272 µM (active) with HOP-92; 2.7 µM (inactive) in the experiment with SK-MEL-5. The GI50 with UO-31 was 2.95 µM (inactive).
As to `O=C1C=CC[C@H](/C=C/C[C@@H](O)C[C@H](O)/C=C/c2ccccc2)O1`, the GI50 is 14.1 µM (inactive) in the experiment with A498; 5.09 µM (inactive) with HCT-116; 14.6 µM (inactive) in the experiment with ACHN; 6.4 µM (inactive) with CAKI-1; 13.9 µM (inactive) in the experiment with UACC-257; 12.4 µM (inactive) in the experiment with MCF7. Further, the GI50 in the experiment with COLO 205 was 7.87 µM (inactive); in the experiment with KM12, 12.3 µM (inactive); in the experiment on NCI-H460, 15.3 µM (inactive); in the experiment on NCI-H23, 11.3 µM (inactive); in the experiment with HCT-15, 10500 nM; with SF-268 it was 21.8 µM (inactive). For the same compound, the GI50 in the experiment with Hs-578T is 19.3 µM (inactive); in the experiment with MDA-N, 12.4 µM (inactive); with PC-3, 14.5 µM (inactive); in the experiment on HOP-92, 2.56 µM (inactive); in the experiment on SK-MEL-5, 13.7 µM (inactive); with UO-31, 13.2 µM (inactive). Further, the GI50 in the experiment on NCI-H226 was 12.8 µM (inactive).

For the origin of these results see ChEMBL document CHEMBL1201862, “PubChem BioAssay data set” (2004).
